This passage reports IC50 results from patent publication US20030134859A1 (SANKYO COMPANY, LIMITED, priority 2000, published 2003).

The target in the assay is T1, human PPAR γ 2 (Homo sapiens, UniProt P37231).
T1 construct: expressed in transfected cells; host or cells: human osteosarcoma MG63, transiently co-transfected with pSG5-hPPARg and the reporter pGV-P2-PPRE
T1 sequence (P37231 1-505): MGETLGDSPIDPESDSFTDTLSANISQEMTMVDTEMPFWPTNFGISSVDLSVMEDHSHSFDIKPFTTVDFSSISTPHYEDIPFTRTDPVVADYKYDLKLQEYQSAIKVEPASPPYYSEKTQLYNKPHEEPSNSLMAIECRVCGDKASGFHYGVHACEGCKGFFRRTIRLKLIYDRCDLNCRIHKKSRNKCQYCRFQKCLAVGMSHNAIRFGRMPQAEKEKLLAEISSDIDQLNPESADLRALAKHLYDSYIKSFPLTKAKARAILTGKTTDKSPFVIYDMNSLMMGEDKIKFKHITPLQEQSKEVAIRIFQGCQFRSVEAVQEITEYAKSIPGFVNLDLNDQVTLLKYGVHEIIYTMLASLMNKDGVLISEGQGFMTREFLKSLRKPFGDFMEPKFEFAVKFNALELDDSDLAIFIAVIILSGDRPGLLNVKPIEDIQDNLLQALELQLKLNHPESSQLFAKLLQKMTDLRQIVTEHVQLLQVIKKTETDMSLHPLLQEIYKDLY
Description: Inhibitory activity against PPAR γ transcription in the presence of agonist compound A, luciferase reporter. The format is cell-based. The settings on record: in the presence of 10 nM compound A (agonist); MG63 cells transfected with pSG5-hPPARg and pGV-P2-PPRE; 24 hr.

Where a name gives a salt, the structure may show the parent alone.

Usually IC50 stands for the concentration that gives 50% inhibition. On to `Cc1ccc2nc(-c3ccc(NC(=O)c4cc([N+](=O)[O-])ccc4Cl)cc3)sc2c1` [Example 10, N-[4-(6-Methylbenzothiazol-2-yl)phenyl]-(2-chloro-5-nitrophenyl)carboxamide], for which the concentration for half-maximal inhibition (IC50) came to 71 nM. `N#Cc1ccc(NC(=O)c2cc([N+](=O)[O-])ccc2Cl)cc1` [Example 20, N-(4-Cyanophenyl)-(2-chloro-5-nitrophenyl)carboxamide]: the IC50 worked out at 15 nM. Turning to `Cc1cccc(-c2csc(NC(=O)c3cc([N+](=O)[O-])ccc3Cl)n2)c1` [Example 40, N-[4-(3-Methylphenyl)thiazol-2-yl)-(2-chloro-5-nitrophenyl)carboxamide], the IC50 stood at 57 nM. As to `CCc1ccc(-c2csc(NC(=O)c3cc([N+](=O)[O-])ccc3Cl)n2)cc1` [Example 44, N-[4-(4-Ethylphenyl)thiazol-2-yl]-(2-chloro-5-nitrophenyl)carboxamide], the IC50 was 84 nM. With `O=C(Nc1cccnc1)c1cc([N+](=O)[O-])ccc1Cl` [Example 50, N-(3-Pyridyl)-(2-chloro-5-nitrophenyl)carboxamide], the half-maximal inhibitory concentration (IC50) was determined as 110 nM. With `Cc1ccnc(NC(=O)c2cc([N+](=O)[O-])ccc2Cl)n1` [Example 65, N-(4-Methylpyrimidin-2-yl)-(2-chloro-5-nitrophenyl)carboxamide] the figure was 37 nM; with `Cc1cc(Cl)nc(NC(=O)c2cc([N+](=O)[O-])ccc2Cl)n1` [Example 78, N-(4-Chloro-6-methylpyrimidin-2-yl)-(2-chloro-5-nitrophenyl)carboxamide], 84 nM.

Turning to `CC(C)(C)OC(=O)Nc1ccc(-c2ccc(NC(=O)c3cc([N+](=O)[O-])ccc3Cl)cc2)cc1` [Example 87, N-[4-[4-(tert-Butoxycarbonylamino)phenyl]phenyl]-(2-chloro-5-nitrophenyl)carboxamide], the 50% inhibitory concentration (IC50) was determined as 33 nM. For the compound `CCCCCCNc1ccc(-c2ccc(NC(=O)c3cc([N+](=O)[O-])ccc3Cl)cc2)cc1` [Example 195, N-[4-[4-(N-Hexylamino)phenyl]phenyl]-(2-chloro-5-nitrophenyl)carboxamide], the concentration for half-maximal inhibition (IC50) is 18 nM. For `CCCCCCN(C)c1ccc(-c2ccc(NC(=O)c3cc([N+](=O)[O-])ccc3Cl)cc2)cc1` [Example 196, N-[4-[4-(N-Hexyl-N-methylamino)phenyl]phenyl]-(2-chloro-5-nitrophenyl)carboxamide], the IC50 was found to be 990 nM. Consider `CCCCCCN(CC)c1ccc(-c2ccc(NC(=O)c3cc([N+](=O)[O-])ccc3Cl)cc2)cc1` [Example 197, N-[4-[4-(N-Ethyl-N-hexylamino)phenyl]phenyl]-(2-chloro-5-nitrophenyl)carboxamide], for which the half-inhibitory concentration (IC50) was determined as 280 nM. With `CCCCCCCCNc1ccc(-c2ccc(NC(=O)c3cc([N+](=O)[O-])ccc3Cl)cc2)cc1` [Example 219, N-[4-[4-(N-Octylamino)phenyl]phenyl]-(2-chloro-5-nitrophenyl)carboxamide], the IC50 amounted to 8.3 nM. For the compound `CCCCCCCCN(CCCCCC)c1ccc(-c2ccc(NC(=O)c3cc([N+](=O)[O-])ccc3Cl)cc2)cc1` [Example 220, N-[4-[4-(N-Hexyl-N-octylamino)phenyl]phenyl]-(2-chloro-5-nitrophenyl)carboxamide mono-hydrochloride], the concentration for half-maximal inhibition (IC50) came to 18 nM.

Turning to `CCCCCCCCN(CCCC)c1ccc(-c2ccc(NC(=O)c3cc([N+](=O)[O-])ccc3Cl)cc2)cc1` [Example 222, N-[4-[4-(N-Butyl-N-octylamino)phenyl]phenyl]-(2-chloro-5-nitrophenyl)carboxamide], the half-inhibitory concentration (IC50) stood at 160 nM. For `CCCCCCCCN(CCCC)c1ccc(-c2ccc(NC(=O)c3cc([N+](=O)[O-])ccc3Cl)cc2)cc1.Cl` [Example 223, N-[4-[4-(N-Butyl-N-octylamino)phenyl]phenyl]-(2-chloro-5-nitrophenyl)carboxamide mono-hydrochloride], the concentration for half-maximal inhibition (IC50) turned out to be 89 nM. Consider `CCCCCCCCN(CCC)c1ccc(-c2ccc(NC(=O)c3cc([N+](=O)[O-])ccc3Cl)cc2)cc1` [Example 224, N-[4-[4-(N-Octyl-N-propylamino)phenyl]phenyl]-(2-chloro-5-nitrophenyl)carboxamide], for which the IC50 amounted to 79 nM. On to `CCCCCCCCN(CC)c1ccc(-c2ccc(NC(=O)c3cc([N+](=O)[O-])ccc3Cl)cc2)cc1` [Example 225, N-[4-[4-(N-Ethyl-N-octylamino)phenyl]phenyl]-(2-chloro-5-nitrophenyl)carboxamide], for which the IC50 was 190 nM. Turning to `O=C(Nc1ccc(N2CCN(C(=O)c3ccncc3)CC2)cc1)c1cc([N+](=O)[O-])ccc1Cl` [Example 228, N-[4-[4-(Pyridin-4-ylcarbonyl)piperazin-1-yl]phenyl]-(2-chloro-5-nitrophenyl)carboxamide], the IC50 worked out at 130 nM. As for `O=C(Nc1ccc(CCO)cc1)c1cc([N+](=O)[O-])ccc1Cl` [Example 230, N-[4-(2-Hydroxyethyl)phenyl]-(2-chloro-5-nitrophenyl)carboxamide], the 50% inhibitory concentration (IC50) stood at 19 nM. `O=C(Nc1ccc(-n2ccnc2)cc1)c1cccc(NC(=O)c2cc([N+](=O)[O-])ccc2Cl)c1` [Example 231, N-[[3-[4-(Imidazol-1-yl)phenyl]aminocarbonyl]phenyl]-(2-chloro-5-nitrophenyl)carboxamide]: the IC50 stood at 60 nM. As for `Nc1nc(-c2cccc(NC(=O)c3cc([N+](=O)[O-])ccc3Cl)c2)cs1` [Example 233, N-[3-(2-Amiothiazol-4-yl)phenyl]-(2-chloro-5-nitrophenyl)carboxamide], the IC50 came out at 28 nM. As to `CC(C)(C)OC(=O)Nc1cccc(-c2csc(NC(=O)c3cc([N+](=O)[O-])ccc3Cl)n2)c1` [Example 234, N-[4-(3-tert-Butoxycarbonylaminophenyl)thiazol-2-yl]-(2-chloro-5-nitrophenyl)carboxamide], the concentration for half-maximal inhibition (IC50) was determined as 19 nM. As to `CS(=O)(=O)N(c1ccc(-c2ccc(NC(=O)c3cc([N+](=O)[O-])ccc3Cl)cc2)cc1)S(C)(=O)=O` [Example 235, N-[4-[4-(N,N-Dimethanesulfonylamino)phenyl]phenyl]-(2-chloro-5-nitrophenyl)carboxamide], the IC50 was 19 nM. As for `O=C(Nc1ccc(-c2ccc(NC(=S)Nc3ccncc3)cc2)cc1)c1cc([N+](=O)[O-])ccc1Cl` [Example 258, N-[4-[4-[(Pyridin-4-yl)aminothiocarbonylamino]phenyl]phenyl]-(2-chloro-5-nitrophenyl)carboxamide], the IC50 is 25 nM. On to `NCCc1ccc(NC(=O)c2cc([N+](=O)[O-])ccc2Cl)cc1` [Example 267, N-[4-(2-Aminoethyl)phenyl]-(2-chloro-5-nitrophenyl)carboxamide], for which the IC50 was found to be 60 nM.

Turning to `O=C(Nc1ccc(CCNC(=S)Nc2cccnc2)cc1)c1cc([N+](=O)[O-])ccc1Cl` [Example 273, N-[4-[2-(Pyridin-3-yl)aminothiocarbonylaminoethyl]phenyl]-(2-chloro-5-nitrophenyl)carboxamide], the IC50 is 13 nM.
